Results from publication PMC10928503 (Nature medicine, 2023).
Each block holds one compound with its values, some of them ahead of it.

Tests used:
[1] = molecular target: T1, FpGNAT (acyl-CoA N-acetyltransferase from F. prausnitzii) (Faecalibacterium duncaniae, UniProt C7H1G6); assay: LC-MS/MS end-point acetylation assay; type: biochemical; conditions: 1 mM 5-ASA
T1 sequence (C7H1G6 1-201): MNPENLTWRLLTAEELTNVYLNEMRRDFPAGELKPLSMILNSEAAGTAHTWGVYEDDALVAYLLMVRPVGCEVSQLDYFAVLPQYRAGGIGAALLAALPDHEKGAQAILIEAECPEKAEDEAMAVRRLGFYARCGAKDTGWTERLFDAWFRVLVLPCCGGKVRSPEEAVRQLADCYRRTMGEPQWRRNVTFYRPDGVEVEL

[2] = molecular target: Firmicutes CAG:176 thiolase (FcTHL) (Firmicutes CAG:176 (uncultured Firmicutes)); assay: crystal structure
[3] = tested on: FcTHL (Firmicutes CAG:176 thiolase); assay: LC-MS/MS of N-acetyl 5-ASA formed, Michaelis-Menten; type: biochemical, Firmicutes bacterium CAG:176; conditions: 1 mM acetyl-CoA constant; 20 mM HEPES pH 7.5, 50 mM NaCl, 1 mM MgCl2, 1 mM TCEP, 5 uM enzyme, 37 °C

Compound: CC(=O)SCCNC(=O)CCNC(=O)[C@H](O)C(C)(C)COP(=O)(O)OP(=O)(O)OC[C@H]1O[C@@H](n2cnc3c(N)ncnc32)[C@H](O)[C@@H]1OP(=O)(O)O [acetyl-CoA]
- LC-MS/MS end-point acetylation assay ([1]; acetyl donor, same): convert 5-ASA to N-acetyl-5-ASA in the presence of acetyl-CoA

- stoichiometry N [2]: 4
Compound: Firmicutes CAG:176 thiolase (FcTHL) (enzyme)

- Km [3]: 1.88 ± 0.46 mM
Compound: Nc1ccc(O)c(C(=O)O)c1 [5-ASA]
- LC-MS/MS end-point acetylation assay ([1]; 1 mM acetyl-CoA, 50 uM enzyme, pH 7.5, 37 °C, 6 h): convert 5-ASA to N-acetyl-5-ASA in the presence of acetyl-CoA
